Test results: ChEMBL document CHEMBL1137835, “2-(Anilino)imidazolines and 2-(benzyl)imidazoline derivatives as h5-HT1D serotonin receptor ligands” (Bioorg Med Chem Lett, 2004)

Columns and labels:
[1] = target: T1, 5-hydroxytryptamine receptor 1D (Homo sapiens, UniProt P28221); conditions: 1000 nM
Description: Percent displacement of radioligand from human 5-hydroxytryptamine 1D receptor at 1000 nM

[2] = target: T2, 5-hydroxytryptamine receptor 1B (Homo sapiens, UniProt P28222); conditions: 1000 nM
Description: Percent displacement of radioligand from human 5-hydroxytryptamine 1B receptor at 1000 nM

[3] = target: T1, 5-hydroxytryptamine receptor 1D; assay: Binding affinity towards human 5-hydroxytryptamine 1D receptor
[4] = target: T2, 5-hydroxytryptamine receptor 1B; assay: Binding affinity towards human 5-hydroxytryptamine 1B receptor
[5] = target: T3, Alpha-1A adrenergic receptor (Homo sapiens, UniProt P35348); assay: Binding affinity towards human Alpha-1 adrenergic receptor
T3 sequence (P35348 whole entry): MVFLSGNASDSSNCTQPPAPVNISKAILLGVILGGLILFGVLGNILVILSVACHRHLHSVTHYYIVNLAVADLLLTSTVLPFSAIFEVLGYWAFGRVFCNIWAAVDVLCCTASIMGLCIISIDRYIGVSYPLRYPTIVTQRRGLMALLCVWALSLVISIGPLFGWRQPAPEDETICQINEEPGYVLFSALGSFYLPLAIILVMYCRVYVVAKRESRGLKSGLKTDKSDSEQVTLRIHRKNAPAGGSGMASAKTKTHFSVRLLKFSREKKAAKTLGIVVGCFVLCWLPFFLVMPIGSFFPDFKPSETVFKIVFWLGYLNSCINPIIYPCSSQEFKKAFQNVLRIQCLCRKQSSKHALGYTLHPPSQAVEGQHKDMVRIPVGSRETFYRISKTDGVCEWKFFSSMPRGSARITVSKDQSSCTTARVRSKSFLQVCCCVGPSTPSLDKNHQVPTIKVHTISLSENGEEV

[6] = Oral bioavailability in rat (dose 5 mg/kg); type: ADME, organism-based; conditions: in vivo
[7] = Total plasma clearance in rat at a dose of 5 mg/kg; type: ADME, organism-based; design: dose 5 mg/kg; conditions: read-out: Total clearance
[8] = species on record: Cavia porcellus; assay: Compound was tested for serotonergic activity on […] induced by electrical stimulation in guinea-pigs
[9] = Plasma half-life in rat at a dose of 5 mg/kg; type: ADME, organism-based; design: dose 5 mg/kg
[10] = Volume of distribution of compound in rat body tissue at a dose of 5 mg/kg; type: ADME, organism-based; design: dose 5 mg/kg; conditions: in vivo
[11] = target: Serotonin 1 receptors; 5-HT1B & 5-HT1D (Homo sapiens) (UniProt P28222+P28221); assay: Ratio of 5-hydroxytryptamine 1B receptor to that of 5-hydroxytryptamine 1D receptor was determined; type: protein assay
[12] = species on record: Oryctolagus cuniculus; assay: Agonistic activity tested in isolated rabbit saphenous vein; type: functional
[13] = target: T4, Muscarinic acetylcholine receptor M4 (Homo sapiens) (UniProt P08173); assay: Inhibitory activity against human Muscarinic acetylcholine receptor M4 at 1000 nM
T4 sequence (whole entry): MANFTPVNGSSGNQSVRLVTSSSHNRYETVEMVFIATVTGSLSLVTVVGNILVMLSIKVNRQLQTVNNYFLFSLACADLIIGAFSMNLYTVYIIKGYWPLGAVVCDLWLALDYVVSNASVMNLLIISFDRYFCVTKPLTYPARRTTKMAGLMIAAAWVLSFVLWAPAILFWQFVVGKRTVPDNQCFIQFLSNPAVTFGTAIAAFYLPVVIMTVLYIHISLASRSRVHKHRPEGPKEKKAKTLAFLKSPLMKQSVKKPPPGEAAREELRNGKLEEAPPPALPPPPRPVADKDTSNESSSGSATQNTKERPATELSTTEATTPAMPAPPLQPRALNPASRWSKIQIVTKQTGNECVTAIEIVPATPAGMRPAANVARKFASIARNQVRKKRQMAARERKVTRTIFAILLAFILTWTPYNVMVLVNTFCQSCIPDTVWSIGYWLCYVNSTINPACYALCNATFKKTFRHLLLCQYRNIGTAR

[14] = tested on: Cavia porcellus; assay: Compound was tested for serotonergic activity on […] induced by electrical stimulation in guinea-pigs (3-7 nM/kg)

T2 sequence (P28222 whole entry): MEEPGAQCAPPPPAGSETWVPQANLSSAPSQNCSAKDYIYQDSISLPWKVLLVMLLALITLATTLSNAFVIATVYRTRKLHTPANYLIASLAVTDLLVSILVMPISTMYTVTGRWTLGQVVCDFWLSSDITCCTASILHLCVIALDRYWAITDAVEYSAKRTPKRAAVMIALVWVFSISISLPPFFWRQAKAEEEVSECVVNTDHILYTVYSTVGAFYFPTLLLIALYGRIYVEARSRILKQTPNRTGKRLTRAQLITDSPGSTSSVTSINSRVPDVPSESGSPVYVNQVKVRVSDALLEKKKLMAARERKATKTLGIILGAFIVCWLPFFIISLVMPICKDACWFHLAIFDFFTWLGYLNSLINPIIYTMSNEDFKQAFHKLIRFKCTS
T1 sequence (P28221 whole entry): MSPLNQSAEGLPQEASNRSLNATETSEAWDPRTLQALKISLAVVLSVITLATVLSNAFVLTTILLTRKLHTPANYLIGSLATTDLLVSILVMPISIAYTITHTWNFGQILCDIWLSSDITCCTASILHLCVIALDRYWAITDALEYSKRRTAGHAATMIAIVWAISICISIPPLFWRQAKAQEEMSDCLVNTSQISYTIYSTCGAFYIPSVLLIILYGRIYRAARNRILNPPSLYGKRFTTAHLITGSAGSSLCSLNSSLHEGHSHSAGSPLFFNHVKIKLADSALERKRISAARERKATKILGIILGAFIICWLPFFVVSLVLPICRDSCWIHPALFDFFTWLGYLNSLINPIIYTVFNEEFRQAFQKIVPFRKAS

SMILES	Ki [3]	Ki [4]	Selectivity [11]	other results
Clc1cccc(Cl)c1NC1=NCCN1	–	–	–	inhibition [1]: < 5%; inhibition [2]: < 5%
Cc1cc([N+](=O)[O-])cc(C)c1N=C1NCCN1	330 nM	10200 nM	–	–
Cc1cc(C(C)(C)C)cc(C)c1CC1=NCCN1 [XYLOMETAZOLINE]	–	13 nM	–	Ki [5]: 91 nM
Cc1cc(C(C)(C)C)cc(C)c1CC1=NCCN1C	–	–	–	bioavailability [6]: 42.1%; clearance [7]: 66.4 mL/min/kg; IC50 [8]: 10 nM/kg; half-life [9]: 0.95 h; Vd [10]: 3.97 L/kg
Cc1cc(Br)cc(C)c1N=C1NCCN1	54 nM	1430 nM	26	–
Cc1cc([N+](=O)[O-])cc(C)c1NC1=NCCN1	–	–	30	–
Cc1cc(C(C)(C)C)cc(C)c1CC1=NCCN1Cc1ccccc1	–	–	–	bioavailability [6]: 9.3%; EC50 [12]: 780 nM; clearance [7]: 57.6 mL/min/kg; IC50 [8]: 0.4 nM/kg; half-life [9]: 1.64 h; Vd [10]: 7.28 L/kg; inhibition [13]: 68%
Cc1cc(C(C)(C)C)cc(C)c1CC1=NCCCN1	33 nM	4430 nM	–	bioavailability [6]: 9.9%; clearance [7]: 28.9 mL/min/kg; IC50 [8]: 5 nM/kg; half-life [9]: 1.03 h; Vd [10]: 1.24 L/kg
Cc1cccc(C)c1CC1=NCCN1	–	–	> 4	–
CC(C)(C)c1ccc(C2=NCCN2)cc1	105 nM	–	–	Ki [5]: 91 nM
CNS(=O)(=O)Cc1ccc2[nH]cc(CCN(C)C)c2c1	–	–	–	IC50 [14]: 7 nM/kg
Clc1cc(I)cc(Cl)c1N=C1NCCN1 [PI-CLONIDINE]	50 nM	1980 nM	40	–
c1ccc(NC2=NCCN2)cc1	> 30000 nM	> 30000 nM	–	–
Cc1cc(C(C)(C)C)cc(C)c1N=C1NCCN1	0.3 nM	12 nM	–	–
Cc1cc(C(C)(C)C)cc(C)c1NC1=NCCN1	–	–	40	–
Cc1cccc(C)c1N=C1NCCN1	2080 nM	> 30000 nM	> 10	–
Cc1cc(Br)cc(C)c1CC1=NCCN1	–	–	20	–
